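Grown in 96-well plates, cells were treated for 48 hours with each compound at five concentrations. Insufficient inhibition: endpoint recorded as highest concentration tested. GI50: concentration for 50% inhibition of growth. TGI denotes the concentration required for complete inhibition of growth.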
Tests used:
Test in all cases: growth of human tumour cells (NCI), 48 h
HCT-15 colon = tested on: HCT-15 colon
M19-MEL melanoma = tested on: M19-MEL melanoma
OVCAR-8 ovarian = tested on: OVCAR-8 ovarian
SK-MEL-28 melanoma = tested on: SK-MEL-28 melanoma
DMS 273 small cell lung = tested on: DMS 273 small cell lung
M14 melanoma = tested on: M14 melanoma
NCI-H226 lung = tested on: NCI-H226 lung
SK-OV-3 ovarian = tested on: SK-OV-3 ovarian
OVCAR-3 ovarian = tested on: OVCAR-3 ovarian
NCI/ADR-RES ovarian = tested on: NCI/ADR-RES ovarian

Row | Structure (SMILES) | TGI (HCT-15 colon) [µM] | TGI (M19-MEL melanoma) [µM] | TGI (OVCAR-8 ovarian) [µM] | TGI (SK-MEL-28 melanoma) [µM] | TGI (DMS 273 small cell lung) [µM] | TGI (M14 melanoma) [µM] | TGI (NCI-H226 lung) [µM] | TGI (SK-OV-3 ovarian) [µM] | GI50 (OVCAR-3 ovarian) [µM] | TGI (OVCAR-3 ovarian) [µM] | GI50 (HCT-15 colon) [µM] | GI50 (OVCAR-8 ovarian) [µM] | GI50 (SK-MEL-28 melanoma) [µM] | GI50 (M14 melanoma) [µM] | GI50 (NCI-H226 lung) [µM] | GI50 (SK-OV-3 ovarian) [µM] | GI50 (NCI/ADR-RES ovarian) [µM] | TGI (NCI/ADR-RES ovarian) [µM] | GI50 (M19-MEL melanoma) [µM] | GI50 (DMS 273 small cell lung) [µM]
1 | CNS(=O)(=O)NNS(=O)(=O)c1ccc(Br)cc1 | > 100 | > 100 | > 100 | > 100 | > 100 | > 100 | > 100 | > 100 | – | – | – | – | – | – | – | – | – | – | – | –
2 | COCC1(CO)C(=O)C2CCN1CC2 (stereo unspecified) | 32.7 | – | > 80.3 | 28.6 | – | 31.6 | > 71.9 | > 80.9 | 14.2 | 29.4 | 15.8 | 34.6 | 14.5 | 15.4 | > 47.5 | > 51 | 25.6 | > 78.6 | – | –
3 | Cc1nc2sc3c(c2c(=O)[nH]1)CCCC3 | > 100 | – | > 100 | > 100 | – | > 100 | > 100 | > 100 | – | > 100 | – | – | – | – | – | – | – | > 100 | – | –
4 | CC(C)C(=O)NS(=O)(=O)c1ccccc1 | – | > 100 | > 100 | > 100 | – | > 100 | > 100 | > 100 | – | > 100 | – | – | – | – | – | – | – | – | – | –
5 | CN(CCO)c1ccc(N2Cc3ccccc3OC3=C2C(=O)c2c(O)ccc(O)c2C3=O)cn1 | 0.484 | – | 3.49 | 0.611 | – | 0.409 | 2.95 | 8.65 | 0.111 | 0.276 | 0.127 | 0.307 | 0.246 | 0.192 | 0.854 | 2.24 | 0.31 | 1.34 | – | –
6 | CC1COC(C)(C)P(=O)(c2ccccc2)C1 (stereo unspecified) | > 100 | > 100 | > 100 | > 100 | > 100 | > 100 | > 100 | > 100 | – | > 100 | – | – | – | – | – | – | – | – | – | –
7 | N=C(N)c1ccc2nc(-c3cc(CC(=O)N[C@@H](CC(=O)O)C(=O)O)cc(-c4cc(S(N)(=O)=O)ccc4O)c3O)[nH]c2c1 | > 100 | – | > 100 | > 100 | – | > 100 | > 100 | > 100 | > 100 | > 100 | > 100 | > 100 | > 100 | > 100 | > 100 | > 100 | > 100 | > 100 | – | –
8 | CC(C)N(CCn1c2c3ccccc3ccc2c2oc(=O)c3ccccc3c21)C(C)C | > 100 | > 100 | > 100 | > 100 | – | > 100 | > 100 | > 100 | – | > 100 | – | – | – | – | – | – | – | – | – | –
9 | CC(=O)[O][Ga]([Br])[O]C(C)=O | – | > 100 | > 100 | > 100 | > 100 | > 100 | > 100 | > 100 | > 100 | > 100 | – | > 100 | > 100 | > 100 | > 100 | > 100 | – | – | > 100 | > 100
10 | C1=C\COCc2cc(ccc2OCCN2CCCC2)Nc2nccc(n2)-c2cccc(c2)COC/1 | 7.51 | – | 7.32 | 5.33 | – | 4.72 | 5.09 | 6.19 | 2.01 | 5.57 | 1.26 | 3.22 | 2.1 | 1.75 | 3.19 | 3.62 | 2.77 | 7.35 | – | –
11 | NCCSc1nc(-c2ccccc2)c(-c2ccccc2)o1 | > 100 | – | > 100 | > 100 | – | > 100 | > 100 | > 100 | – | > 100 | – | – | – | – | – | – | – | > 100 | – | –
12 | CCN1CCC(O)(/C=C/c2ccc(C)cc2)C(C(=O)/C=C/c2ccc(C)cc2)C1 (stereo unspecified) | 16.2 | – | 7.54 | 14.8 | – | 9.52 | 29 | 29.1 | – | 18.4 | – | – | – | – | – | – | – | 8.03 | – | –
13 | C#COc1cccc(Nc2c(C#N)cnc3ncc(NC(=O)CCl)cc23)c1 | > 62.5 | – | > 62.5 | > 62.5 | – | > 62.5 | > 62.5 | > 62.5 | 25.3 | > 62.5 | > 62.5 | 46 | > 62.5 | > 62.5 | > 62.5 | > 62.5 | > 62.5 | > 62.5 | – | –
14 | CCn1c(=O)c2c(=O)c3c4c(oc3oc2c2ccccc21)C(=O)c1ccccc1C4=O | > 100 | – | > 100 | > 100 | – | > 100 | > 100 | > 100 | 0.627 | 4.51 | > 100 | 3.3 | > 100 | > 100 | > 100 | > 100 | 13.8 | > 100 | – | –
15 | CCCCCOc1ccc(/C=N/Nc2cc(C)nc3ccc(Br)cc23)cc1 | 3.13 | – | 4.73 | 3.1 | – | 3.53 | 4.32 | 3.18 | 1.92 | 3.37 | 1.57 | 2.13 | 1.65 | 1.88 | 1.85 | 1.75 | 1.83 | 4.19 | – | –
16 | CCN1C(=O)N(CC)C2C1NN=c1s/c(=C3\C(=O)N(CC(C)(C)C)c4ccccc43)c(=O)n12 (stereo unspecified) | 18.4 | – | > 100 | 22 | – | 20.7 | 28.1 | 74.6 | 3.17 | 12.1 | 3.31 | 4.67 | 6.94 | 3.72 | 5.71 | 10.7 | 2.61 | 13.3 | – | –
17 | N#Cc1c(N/N=C/c2ccc(Cl)cc2Cl)nc(N)nc1N1CCCC1 | > 100 | – | > 100 | > 100 | – | > 100 | > 100 | > 100 | 25.5 | > 100 | 19.3 | 27.5 | 37.6 | 44.2 | 15.7 | 47.8 | 19.4 | 82.4 | – | –

From PubChem BioAssay (NCI)
